Columns and labels:
Assay type in all cases: in vivo
Conditions in all cases: scale 0 to 100
[1] = tested on: field poppy (Papaver rhoeas); assay: Test C postemergence greenhouse test
In short: (§1)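 Formulation: non-phytotoxic solvent mixture including surfactant. Preemergence on seeds in silt loam; postemergence on plants 2 to 18 cm tall in peat-based potting medium. Controls held alongside; visual evaluation at 13 to 21 d, 0 = no effect, 100 = complete control.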

[2] = tested on: chickweed (common chickweed, Stellaria media); assay: Test C postemergence greenhouse test
In short: as §1

[3] = tested on: morningglory (Ipomoea coccinea); assay: Test C pre-/postemergence greenhouse test
In short: as §1

[4] = tested on: galium (catchweed bedstraw, Galium aparine); assay: Test C pre-/postemergence greenhouse test
In short: as §1

kochia (Kochia scoparia) = assay: Test C pre-/postemergence greenhouse test
In short: as §1

[5] = tested on: pigweed, palmer (Amaranthus palmeri); assay: Test C pre-/postemergence greenhouse test
In short: as §1

soybean (Glycine max) = assay: Test C pre-/postemergence greenhouse test
In short: as §1

[6] = tested on: waterhemp (common waterhemp, Amaranthus rudis); assay: Test C pre-/postemergence greenhouse test
In short: as §1

[7] = tested on: lambsquarters (Chenopodium album); assay: Test C pre-/postemergence greenhouse test
In short: as §1

[8] = tested on: foxtail, giant (Setaria faberii); assay: Test C pre-/postemergence greenhouse test
In short: as §1

[9] = tested on: blackgrass (Alopecurus myosuroides); assay: Test C pre-/postemergence greenhouse test
In short: as §1

oat, wild (Avena fatua) = assay: Test C pre-/postemergence greenhouse test
In short: as §1

## Cc1cc(Cl)c2ccccc2c1-c1c(O)c(Cl)nn(C)c1=O [Cpd. No. 65]
[1]; 16 g ai/ha
  Plant response rating, Field Poppy: 80
[1]; 31 g ai/ha
  Plant response rating, Field Poppy: 98
[1]; 62 g ai/ha
  Plant response rating, Field Poppy: 98
[1]; 125 g ai/ha
  Plant response rating, Field Poppy: 100
[2]; 16 g ai/ha
  Plant response rating, Chickweed: 98
[2]; 31 g ai/ha
  Plant response rating, Chickweed: 95
[2]; 62 g ai/ha
  Plant response rating, Chickweed: 95
[2]; 125 g ai/ha
  Plant response rating, Chickweed: 98
[3]; Postemergence, 16 g ai/ha
  Plant response rating, Morningglory: 98
[3]; Postemergence, 31 g ai/ha
  Plant response rating, Morningglory: 100
[3]; Postemergence, 62 g ai/ha
  Plant response rating, Morningglory: 100
[3]; Postemergence, 125 g ai/ha
  Plant response rating, Morningglory: 100
[3]; Preemergence, 31 g ai/ha
  Plant response rating, Morningglory: 90
[3]; Preemergence, 61 g ai/ha
  Plant response rating, Morningglory: 55
[3]; Preemergence, 62 g ai/ha
  Plant response rating, Morningglory: 98
[3]; Preemergence, 125 g ai/ha
  Plant response rating, Morningglory: 95
[4]; Postemergence, 16 g ai/ha
  Plant response rating, Galium: 90
[4]; Postemergence, 31 g ai/ha
  Plant response rating, Galium: 90
[4]; Postemergence, 62 g ai/ha
  Plant response rating, Galium: 95
[4]; Postemergence, 125 g ai/ha
  Plant response rating, Galium: 98
[4]; Preemergence, 31 g ai/ha
  Plant response rating, Galium: 85
[4]; Preemergence, 61 g ai/ha
  Plant response rating, Galium: 0
[4]; Preemergence, 62 g ai/ha
  Plant response rating, Galium: 98
[4]; Preemergence, 125 g ai/ha
  Plant response rating, Galium: 100
Kochia (Kochia scoparia); Postemergence, 16 g ai/ha
  Plant response rating, Kochia: 40
Kochia (Kochia scoparia); Postemergence, 31 g ai/ha
  Plant response rating, Kochia: 55
Kochia (Kochia scoparia); Postemergence, 62 g ai/ha
  Plant response rating, Kochia: 65
Kochia (Kochia scoparia); Postemergence, 125 g ai/ha
  Plant response rating, Kochia: 75
Kochia (Kochia scoparia); Preemergence, 31 g ai/ha
  Plant response rating, Kochia: 70
Kochia (Kochia scoparia); Preemergence, 61 g ai/ha
  Plant response rating, Kochia: 20
Kochia (Kochia scoparia); Preemergence, 62 g ai/ha
  Plant response rating, Kochia: 85
Kochia (Kochia scoparia); Preemergence, 125 g ai/ha
  Plant response rating, Kochia: 90
[5]; Postemergence, 16 g ai/ha
  Plant response rating, Pigweed, Palmer: 35
[5]; Postemergence, 31 g ai/ha
  Plant response rating, Pigweed, Palmer: 55
[5]; Postemergence, 62 g ai/ha
  Plant response rating, Pigweed, Palmer: 60
[5]; Postemergence, 125 g ai/ha
  Plant response rating, Pigweed, Palmer: 95
[5]; Preemergence, 31 g ai/ha
  Plant response rating, Pigweed, Palmer: 70
[5]; Preemergence, 61 g ai/ha
  Plant response rating, Pigweed, Palmer: 50
[5]; Preemergence, 62 g ai/ha
  Plant response rating, Pigweed, Palmer: 100
[5]; Preemergence, 125 g ai/ha
  Plant response rating, Pigweed, Palmer: 100
Soybean (Glycine max); Postemergence, 16 g ai/ha
  Plant response rating, Soybean: 65
Soybean (Glycine max); Postemergence, 31 g ai/ha
  Plant response rating, Soybean: 75
Soybean (Glycine max); Postemergence, 62 g ai/ha
  Plant response rating, Soybean: 80
Soybean (Glycine max); Postemergence, 125 g ai/ha
  Plant response rating, Soybean: 85
Soybean (Glycine max); Preemergence, 31 g ai/ha
  Plant response rating, Soybean: 0
Soybean (Glycine max); Preemergence, 61 g ai/ha
  Plant response rating, Soybean: 0
Soybean (Glycine max); Preemergence, 62 g ai/ha
  Plant response rating, Soybean: 5
Soybean (Glycine max); Preemergence, 125 g ai/ha
  Plant response rating, Soybean: 30
[6]; Postemergence, 16 g ai/ha
  Plant response rating, Waterhemp: 80
[6]; Postemergence, 31 g ai/ha
  Plant response rating, Waterhemp: 90
[6]; Postemergence, 62 g ai/ha
  Plant response rating, Waterhemp: 95
[6]; Postemergence, 125 g ai/ha
  Plant response rating, Waterhemp: 95
[6]; Preemergence, 31 g ai/ha
  Plant response rating, Waterhemp: 75
[6]; Preemergence, 61 g ai/ha
  Plant response rating, Waterhemp: 80
[6]; Preemergence, 62 g ai/ha
  Plant response rating, Waterhemp: 85
[6]; Preemergence, 125 g ai/ha
  Plant response rating, Waterhemp: 95
[7]; Postemergence, 16 g ai/ha
  Plant response rating, Lambsquarters: 90
[7]; Postemergence, 31 g ai/ha
  Plant response rating, Lambsquarters: 98
[7]; Postemergence, 62 g ai/ha
  Plant response rating, Lambsquarters: 100
[7]; Postemergence, 125 g ai/ha
  Plant response rating, Lambsquarters: 100
[7]; Preemergence, 31 g ai/ha
  Plant response rating, Lambsquarters: 80
[7]; Preemergence, 61 g ai/ha
  Plant response rating, Lambsquarters: 20
[7]; Preemergence, 62 g ai/ha
  Plant response rating, Lambsquarters: 90
[7]; Preemergence, 125 g ai/ha
  Plant response rating, Lambsquarters: 100
[8]; Postemergence, 16 g ai/ha
  Plant response rating, Foxtail, Giant: 95
[8]; Postemergence, 31 g ai/ha
  Plant response rating, Foxtail, Giant: 95
[8]; Postemergence, 62 g ai/ha
  Plant response rating, Foxtail, Giant: 98
[8]; Postemergence, 125 g ai/ha
  Plant response rating, Foxtail, Giant: 98
[8]; Preemergence, 31 g ai/ha
  Plant response rating, Foxtail, Giant: 75
[8]; Preemergence, 61 g ai/ha
  Plant response rating, Foxtail, Giant: 35
[8]; Preemergence, 62 g ai/ha
  Plant response rating, Foxtail, Giant: 95
[8]; Preemergence, 125 g ai/ha
  Plant response rating, Foxtail, Giant: 100
[9]; Postemergence, 16 g ai/ha
  Plant response rating, Blackgrass: 55
[9]; Postemergence, 31 g ai/ha
  Plant response rating, Blackgrass: 90
[9]; Postemergence, 62 g ai/ha
  Plant response rating, Blackgrass: 90
[9]; Postemergence, 125 g ai/ha
  Plant response rating, Blackgrass: 95
[9]; Preemergence, 31 g ai/ha
  Plant response rating, Blackgrass: 5
[9]; Preemergence, 61 g ai/ha
  Plant response rating, Blackgrass: 10
[9]; Preemergence, 62 g ai/ha
  Plant response rating, Blackgrass: 55
[9]; Preemergence, 125 g ai/ha
  Plant response rating, Blackgrass: 85
oat, wild (Avena fatua); Postemergence, 16 g ai/ha
  Plant response rating, Oat, Wild: 98
oat, wild (Avena fatua); Postemergence, 31 g ai/ha
  Plant response rating, Oat, Wild: 100
oat, wild (Avena fatua); Postemergence, 62 g ai/ha
  Plant response rating, Oat, Wild: 100
oat, wild (Avena fatua); Postemergence, 125 g ai/ha
  Plant response rating, Oat, Wild: 100
oat, wild (Avena fatua); Preemergence, 31 g ai/ha
  Plant response rating, Oat, Wild: 35
oat, wild (Avena fatua); Preemergence, 61 g ai/ha
  Plant response rating, Oat, Wild: 30
oat, wild (Avena fatua); Preemergence, 62 g ai/ha
  Plant response rating, Oat, Wild: 40
oat, wild (Avena fatua); Preemergence, 125 g ai/ha
  Plant response rating, Oat, Wild: 60

From patent US12435044B2, “Pyridazinone herbicides and pyridazinone intermediates used to prepare a herbicide” (FMC Corporation, priority 2018, dated 2025)
